Reference: patent US9783576B2, “Compositions and methods for targeted endometriosis treatment” (Sanford-Burnham Medical Research Institute, priority 2013, dated 2017)
“Also recorded” adds a separate entry of the source. Where two headings read alike, the source gives them in different places. Where no end group is shown, it is not given here. The star is where a group is joined. FITC = O=C1OC2(c3ccc(O)cc3Oc3cc(O)ccc32)c2ccc(NC(=S)*)cc21

Tests used:
[1] = system: CNGB3-MYC expressing HEK293T cells; test: Endosome escape of biotin-z13 in CNGB3-MYC expressing HEK293T cells; type: cell-based; settings: 37° C. 30 min
Excerpt: (§1) It was realized that this lack of effect could be due to the fact that receptor-bound dKLAK-z13 localizes to the luminal side of endosomes, a prediction supported by the endosome-like pattern of fluorescent z13. To release dKLAK-z13 from the endosomes to the cytoplasm, an endosome-escaping 18-mer peptide HLAHLAHHLAHLAHHLAH (SEQ ID NO:38; here abbreviated as HLAH) was devised by replacing lysines in KLAKLAK (SEQ ID NO:39) with histidines, to provide histidine-rich sequences capable of destabilizing endosome membranes at acidic pH (Midoux et al., 2002; Pichon et al., 2001). […] For this experiment, biotin-z13 was bound to CNGB3-MYC expressing HEK293T cells at 37° C. for 30 min with or without HLAH-z13. Cells were stained by Alexa 488-conjugated avidin followed by DAPI nuclear staining.

[2] = system: CNGB3-expressing HEK293T cells; test: Cell viability assay (ATP, CellTiter Glo) in CNGB3-expressing cells; type: cell-based; settings: 37° C. 1 hour, single peptide
Experimental: FIG. 5 is a graph of luminescence of live cells cultured in medium containing peptides on CNGB3-MYC expressing A431 cells versus peptide concentration for the four different peptide combinations: z13, dKLAK-z13, HLAH-z13, or dKLAK-z13 plus HLAH-z13. Cells were cultured in medium containing each peptide at the indicated concentrations at 37° C. for 1 hour. ATP levels were measured by CellTiter Glo (Promega). Lines represent, in order from top to bottom: z13, dKLAK-z13, HLAH-z13, and dKLAK-z13 plus HLAH-z13.
Cytotoxic activity of dKLAK-z13 was then assessed in the presence of HLAH-z13 using a cell viability assay (FIG. 5). When CNGB3-expressing HEK293T cells were cultured in medium containing z13, dKLAK-z13, or HLAH-z13 at 37° C. for 1 hour, cell viability was not affected except at high concentration of dKLAK-z13 (at 200 μg/ml) or HLAH-z13 (at 50 μg/ml). […] For this experiment, cells were cultured at 37° C. for 20 hours in medium containing no peptide; z13 (100 μg/ml); dKLAK (100 μg/ml); dKLAK-z13 (100 μg/ml); HLAH-z13 (25 μg/ml); or dKLAK-z13 (100 μg/ml) plus HLAH-z13 (25 μg/ml).

A431 cells = test: Fluorescence microscopy binding to control cells; type: cell-based, human
Experimental: (§2) Ishikawa cells and A431 cells were grown on glass coverslips in 3.5 cm tissue culture plates. Each phage clone including z13 was added to these cells, incubated at 4° C. for 15 min, washed with cold PBS, and fixed with 1% paraformaldehyde (PFA) in PBS. Phage was detected using rabbit anti-T7 antibody and FITC-conjugated goat anti-rabbit IgG antibody. After washing three times with PBS, cells were fixed with 1% paraformaldehyde in PBS and inspected under a Zeiss Axioplan fluorescence microscope. Ishikawa cells grown on glass coverslips were incubated in medium containing FITC-z13 peptide (1 μg/ml) at 37° C. for 15 min. After washing with PBS, cells were fixed with 1% PFA in PBS, and inspected under the fluorescence microscope. Qdot-encapsulated and C16-z13 peptide coated liposomes were prepared as described above. Ishikawa cells were incubated with these liposomes at 37° C. for 15 min, washed with PBS, fixed with 1% PFA, and inspected under the fluorescence microscope. Qdot605-conjugated peptide, Qdot-cys-z13, or control peptide, Qdot-cys-m2, was added to the culture at 100 nM and left at 37° C. for 15 min.
(§3) Ishikawa cells and A431 cells were grown on glass coverslips in 3.5-cm tissue culture plates. Ishikawa cells grown on glass coverslips were incubated in medium containing FITC-z13 peptide (1 μg/ml) at 37° C. for 15 min. After washes with PBS, cells were fixed with 1% PFA in PBS and inspected under a fluorescence microscope. Qdot-cys-z13 was prepared by conjugating cys-z13 to Qdot nanoparticles (Qdot antibody conjugation kit, Quantum Dot, Hayward, Calif.) in accordance with the manufacturer's protocol. Cells were inspected under a Zeiss Axioplan fluorescence microscope.

CNGB3 [3] = target: T1, CNGB3 (Homo sapiens, UniProt Q9NQW8); test: FITC-z13 binding to HeLa cells transfected with CNGB3-MYC; type: cell-based; settings: 5 μg/ml, 37° C. 15 min
T1 construct: tissue Folio Biosciences; Imgenex; host or cells: human endometriosis tissue sections, normal uterine endometrium and normal tissue microarrays, peritoneum
T1 sequence (Q9NQW8 1-809 C234W): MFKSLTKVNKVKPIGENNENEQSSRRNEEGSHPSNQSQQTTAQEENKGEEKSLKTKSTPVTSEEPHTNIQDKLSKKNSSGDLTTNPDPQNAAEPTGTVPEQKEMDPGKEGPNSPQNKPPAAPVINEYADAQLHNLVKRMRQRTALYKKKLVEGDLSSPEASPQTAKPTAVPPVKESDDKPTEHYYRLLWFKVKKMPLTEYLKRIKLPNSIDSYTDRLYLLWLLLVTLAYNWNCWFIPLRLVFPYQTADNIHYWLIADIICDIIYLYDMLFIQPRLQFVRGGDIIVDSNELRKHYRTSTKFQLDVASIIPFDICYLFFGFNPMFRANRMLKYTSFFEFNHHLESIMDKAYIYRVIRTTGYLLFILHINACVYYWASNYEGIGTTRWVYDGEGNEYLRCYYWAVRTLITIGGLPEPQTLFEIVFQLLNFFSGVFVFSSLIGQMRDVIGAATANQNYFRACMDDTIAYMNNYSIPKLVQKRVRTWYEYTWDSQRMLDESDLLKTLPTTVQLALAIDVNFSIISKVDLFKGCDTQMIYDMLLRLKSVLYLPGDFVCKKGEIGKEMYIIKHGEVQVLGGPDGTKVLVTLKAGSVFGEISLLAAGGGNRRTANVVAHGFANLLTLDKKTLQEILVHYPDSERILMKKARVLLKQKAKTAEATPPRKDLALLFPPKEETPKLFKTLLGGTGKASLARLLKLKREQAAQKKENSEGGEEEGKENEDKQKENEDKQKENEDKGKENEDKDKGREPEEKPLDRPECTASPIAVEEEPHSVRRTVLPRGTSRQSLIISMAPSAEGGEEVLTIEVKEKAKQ
Excerpt: (§4) To assess binding of FITC-z13 to CNGB3, HeLa cells were transfected with a mammalian expression vector encoding a CNGB3-MYC fusion protein or with control empty vector. Fluorescence micrographs were made of HeLa cells transfected by control vector or with an expression vector encoding CNGB3-MYC.
(§5) CNGB3 cDNA was kindly provided by Dr. Hisao Ueyama, Department of Ophthalomology, Shiga University of Medical Science, Japan. cDNA encoding full-length CNGB3 was excised by HindIII and BsrGI and ligated into the HindIII and Asp718I sites of pcDNA3.1/myc-His-B vector (Invitrogen). HeLa cells were transfected with this vector, and expression of CNGB3-MYC/His fusion protein was determined by immunohistochemistry with an anti-MYC antibody and the anti-CNGB3 antibody (clone 3B2) described above. To test binding of z13 peptide to CNGB3, FITC-z13 was added (5 μg/ml) to the medium of HeLa cells transfected by the above-described vector and incubated at 37° C. for 15 min. Cells were washed with PBS, fixed with 4% PFA in PBS, and observed under a fluorescence microscope.

CNGB3 [4] = target: T2, CNGB3 (Homo sapiens, UniProt Q9NQW8, C234W); test: as above; type: cell-based; settings: control empty vector
T2 construct: tissue Folio Biosciences; Imgenex; host or cells: human endometriosis tissue sections, normal uterine endometrium and normal tissue microarrays, peritoneum
T2 sequence (Q9NQW8 1-809 C234W): T1 sequence (Q9NQW8 1-809 C234W)
Excerpt: as §4, §5

Ishikawa cells = test: Fluorescence microscopy binding to live cells; type: cell-based, human; settings: for fluorescence/binding of Qdot-conjugated peptide on Ishikawa cells: 100 nM
Experimental: as §2, §3

mammalian cell = settings: not coupled to a targeting domain; cited from earlier work
[5] = system: CNGB3-MYC expressing A431 cells; test: TUNEL assay with KLA-HLA hybrid z13 peptides; type: cell-based, human; settings: 24 hours in medium containing peptide
Experimental: (§6) The effect of these peptides was tested using CNGB3-positive A431 cells, which was generated by transfecting A431 cells with CNGB3-Myc gene driving lenti viral vector. […] The assays used detected no difference between these two peptides. The TUNEL assay was of CNGB3-MYC expressing A431 cells after culturing in medium containing KLA-HLA-z13 for 24 hours.

[6] = system: CNGB3-positive A431 cells; test: Cell viability assay measuring ATP with KLA-HLA hybrid z13 peptides; type: cell-based, human; settings: 37° C. 6 hours, ATP by CellTiter Glo (FIG. 8)
Experimental: FIG. 8 is a graph of luminescence versus peptide concentration in μg/ml. […] Cells were cultured in medium containing each peptide at indicated concentrations at 37° C. for 6 hours. ATP levels were measured by CellTiter Glo (Promega).
as §6

[7] = system: CNGB3-Myc cDNA-transfected HEK293T cells; test: Apoptosis (TUNEL) of CNGB3-Myc transfected HEK293T cells; type: cell-based; settings: peptide alone added to culture medium
Excerpt: as §1
Each peptide was dissolved in dimethylsulfoxide at 100 μg/μl. Each peptide was added to the medium of cells, and the cells were cultured at 37° C. for 20 hours. Apoptosis of CNGB3-Myc cDNA-transfected HEK293T cells was determined by TUNEL assay using the ApopTag immunoperoxidase kit (Chemicon, Temecula, Calif.).

HLAHLAHHLAHLAHHLAHVRRADNRPG (HLAHLAHHLAHLAHHLAHVRRAXNXPG; (23)..(23) Xaa can be any naturally occurring amino acid; (25)..(25) Xaa can be any naturally occurring amino acid) [HLAH-z13]
endosome-escaping activity (release of biotin-z13 from endosomes to cytoplasm) [1]: promotes endosome-escaping activity | high concentration at which cell viability was affected (otherwise not affected) [2]: 50 µg/mL

FITC-z13: synthetic fluorescence-tagged z13 peptide whose amino-terminus was conjugated ({FITC}-VRRADNRPG)
binding of FITC-tagged z13 peptide to A431 cells (A431 cells): did not show fluorescence | binding of FITC-tagged z13 peptide to A431 cells (A431 cells; listed as z13 peptide with an N-terminal FITC-tag): not | binding to CNGB3-MYC-expressing HeLa cells (CNGB3 [3]): bound to sites marked by MYC-epitope expression | binding to vector-transfected control HeLa cells (CNGB3 [4]): did not bind | binding of FITC-tagged z13 peptide to Ishikawa cells (Ishikawa cells; 1 μg/ml, 37° C. 15 min): bound

VRRADNRPG [z13]
cell viability [2]: not affected | cellular localization of z13 in Ishikawa cells (Ishikawa cells; punctuate cytoplasmic staining pattern in micrographs): internalized to endosomes

(KLAKLAK)2 (KLAKLAKKLAKLAK) [mitochondriotoxic pro-apoptotic peptide (PAP)]
mammalian cell cytotoxicity of the peptide by itself (mammalian cell): low mammalian cell cytotoxicity

KLAKLAKKLAKLAKHLAHLAHHLAHLAHVRRADNRPG [KLA-HLA-z13]
frequency of TUNEL-positive cells [5]: dose-dependent increase in the frequency of TUNEL-positive cells | apoptosis / loss of viability of CNGB3-positive A431 cells [6]: induced apoptosis

HLAHLAHHLAHLAHKLAKLAKKLAKLAKVRRADNRPG [HLA-KLA-z13]
apoptosis / loss of viability of CNGB3-positive A431 cells [6]: induced apoptosis

KLAKLAKKLAKLAKKLAKVRRADNRPG [dKLAK-z13]
high concentration at which cell viability was affected (otherwise not affected) [2]: 200 µg/mL | induction of apoptosis in CNGB3-expressing cells [7]: apoptosis was not induced; also recorded: did not induce apoptosis

Qdot-cys-z13: synthetic cys-z13 peptide CVRRADNRPG conjugated to fluorescent nanocrystal Qdot605 (also: conjugated to Qdot605 nanocrystal)
binding of Qdot-conjugated peptide to A431 cells (A431 cells): not | fluorescence/binding of Qdot-conjugated peptide on Ishikawa cells (Ishikawa cells; 37° C. 15 min): strong fluorescence | fluorescence/binding of Qdot-conjugated peptide on Ishikawa cells (Ishikawa cells; 37° C. 15 min, listed as Qdot-z13): bound
